Data on 22 compounds can be found in patent US4594319A, “Protein kinase enzyme AUT-PK 500 and a radioimmunoassay for detection of neoplasia” (The University of Tennessee Research Corp., priority 1984, dated 1986).

Assay [1] concerns AUT-PK 500. Description: Protein kinase assay: autophosphorylation of AUT-PK 500 (32P incorporation from [gamma-32P] ATP). In kind it is biochemical, rat. Particulars: for ^32 P Incorporated (autophosphorylation of AUT-PK 500): 1 microgram enzyme; for concentration giving peak activity of the enzyme / maximal activation, relative to that obtained by Mn^2+ or Mg^2+ / EC50: divalent cations; for EC50: read-out: concentration resulting in half-maximal stimulation of AUT-PK 500; for influence of sulfhydryl group inhibitors on AUT-PK 500 activity: see Table IV; for effect on the AUT-PK 500 activity: monovalent cations, concentrations of up to 100 mM; for effect on the autophosphorylation of AUT-PK 500: filter assay or radioautography of SDS gel. The procedure:
ATP into an appropriate substrate. […] ATP (400-600 cpm/pmol) and an appropriate amount of the enzyme. The reaction was incubated at 37° C. for one minute or as specified under experimental conditions, and was terminated by the addition of 2 ml of ice-cold 10% trichloroacetic acid followed by the addition of 500 micrograms of bovine serum albumin. The precipitate was immediately filtered on a GF/C filter and washed three times with 2 ml of ice-cold 10% trichloroacetic acid. The filter was dried and counted in a cocktail of Omnifluor in toluene. […]
Autophosphorylation of AUT-PK 500 was also analyzed by one-dimensional SDS-polyacrylamide gel electrophoresis. […] ATP. […] The phosphorylated sample was applied to 6% acrylamide containing 0.1% SDS and 0.3% Bis. Electrophoresis was conducted in the presence of Tris-glycine buffer, pH 8.3.

The test system of assay [2] is AUT-PK 500. Description: Phosphorylation of exogenous substrates by AUT-PK 500. It counts as biochemical, rat. How it is done: Protein kinase activity was measured by the incorporation of ^32 P from [gamma-^32 P] ATP into an appropriate substrate. The 250-microliter reaction mixture contained 20 mM Tris-HCl, pH 7.5, 10 mM Mg^2+, 2.5×10^-6 M [gamma-^32 P] ATP (400-600 cpm/pmol) and an appropriate amount of the enzyme. The reaction was incubated at 37° C. for one minute or as specified under experimental conditions, and was terminated by the addition of 2 ml of ice-cold 10% trichloroacetic acid followed by the addition of 500 micrograms of bovine serum albumin. The precipitate was immediately filtered on a GF/C filter and washed three times with 2 ml of ice-cold 10% trichloroacetic acid. The filter was dried and counted in a cocktail of Omnifluor in toluene.
Most of the known cyclic nucleotide-dependent or -independent protein kinases catalyze the phosphorylation of one or more of the commonly used exogenous substrates such as histone, casein, protamine, and phosvitin. […] In order to confirm this conclusion, AUT-PK 500 was incubated with [gamma-^32 P] ATP and histone in the presence or absence of cyclic AMP, then subjected to SDS-polyacrylamide gel electrophoresis and analyzed by radioautography.

Setting [3] is: Table IV, -SH group inhibitor 5 mM, enzyme alone 18,500 cpm.
Setting [4] is: Table II, addition 10 micrograms, enzyme alone 16,000 cpm.
The mark [5] stands for this setting: concentrations of up to 200 micrograms/ml.

As for `[Ca+2]` [Ca^2+], the “^32 P Incorporated (autophosphorylation of AUT-PK 500)” value (“^32 P Incorporated” below) with AUT-PK 500 [1] (Table III, 0.4 mM, enzyme alone 18,500 cpm) was 17,000 cpm. Also, the “effect on AUT-PK 500 activity” value in the assay on AUT-PK 500 [1] (calcium or calcium-calmodulin, Table III) is given as “not affected”. Also, in the assay with AUT-PK 500 [1], the “concentration giving peak activity of the enzyme” value came out at 20 mM and the “maximal activation, relative to that obtained by Mn^2+ or Mg^2+” value is 60%.
In the case of `[Co+2]` [Co^2+], in the assay on AUT-PK 500 [1], the “concentration giving peak activity of the enzyme” value is listed as 5 mM; the “maximal activation, relative to that obtained by Mn^2+ or Mg^2+” value worked out at 40%; the EC50 is 2.5 mM.
As to `Nc1nc2c(ncn2[C@@H]2O[C@@H]3COP(=O)(O)O[C@H]3[C@H]2O)c(=O)[nH]1` [Cyclic GMP], the “dependence of AUT-PK 500 activity on cyclic nucleotides / blockage by heat-stable inhibitor” value in the assay on AUT-PK 500 [1] is “independent”. The “^32 P Incorporated” value in the assay on AUT-PK 500 [1] (Table II, cyclic nucleotide 1 microM, enzyme alone 16,000 cpm) is reported as 16,300 cpm.
As to `O=C(O)CN(CCOCCOCCN(CC(=O)O)CC(=O)O)CC(=O)O` [EGTA, 1,2-di(2-aminoethoxy)ethane-N,N,N',N'-tetraacetic acid], the “inhibition of AUT-PK 500 activity” value in the assay on AUT-PK 500 [1] (EGTA (Table III, 0.8 mM), explained by partial chelation of Mg^2+) was 23.2%. For the same compound, the “^32 P Incorporated” value in the assay with AUT-PK 500 [1] (Table III, 0.8 mM, enzyme alone 18,500 cpm) is reported as 14,200 cpm.
For the compound `Nc1nc2c(ncn2[C@@H]2O[C@H](COP(=O)(O)OP(=O)(O)OP(=O)(O)O)[C@@H](O)[C@H]2O)c(=O)[nH]1` [GTP], the “effect on the ATP-dependent rate of self-phosphorylation” value with AUT-PK 500 [1] is listed as “did not affect”. In the assay on AUT-PK 500 [1] (GTP in place of ATP), the “incorporation of radioactivity with [gamma-^32 P] GTP as phosphate donor” value is listed as “no incorporation of radioactivity was observed”.
`NC(=O)CI` [Iodoacetamide]: the “^32 P Incorporated” value in the assay with AUT-PK 500 [1] (setting [3]) is on record as 18,600 cpm.
`[Mg+2]` [Mg^2+]: in the assay with AUT-PK 500 [1], the “concentration giving peak activity of the enzyme” value amounted to 10 mM and the EC50 is 2.5 mM.
Turning to `[Mn+2]` [Mn^2+], in the assay on AUT-PK 500 [1], the “concentration giving peak activity of the enzyme” value turned out to be 5 mM and the EC50 stood at 2.5 mM.
Consider `CCN1C(=O)C=CC1=O` [N--Ethylmaleimide, N-ethylmaleimide], for which, in the assay with AUT-PK 500 [1] (setting [3]), the “^32 P Incorporated” value is 18,000 cpm. Also, the “influence of sulfhydryl group inhibitors on AUT-PK 500 activity” value with AUT-PK 500 [1] was “did not influence”.
`[Sr+2]` [Sr^2+]: in the assay on AUT-PK 500 [1], the “concentration giving peak activity of the enzyme” value was 50 mM; the “maximal activation, relative to that obtained by Mn^2+ or Mg^2+” value was “of the same order”; the EC50 turned out to be 2.5 mM.
`O=S(=O)(O)c1cc[c]([Hg][Cl])cc1` [p-chloromercuriphenylsulfonic acid]: in the assay with AUT-PK 500 [1] (setting [3]), the “^32 P Incorporated” value is on record as 18,300 cpm. The “influence of sulfhydryl group inhibitors on AUT-PK 500 activity” value in the assay with AUT-PK 500 [1] is reported as “did not influence”.
As for `[K+]` [potassium], in the assay on AUT-PK 500 [1], the “effect on the AUT-PK 500 activity” value is listed as “no significant effect”.
For the compound `NCCCCN` [putrescine], the “effect on the autophosphorylation of AUT-PK 500” value in the assay with AUT-PK 500 [1] (polyamines each at 1 mM) is given as “No effect”.
`[Na+]` [sodium]: the “effect on the AUT-PK 500 activity” value in the assay with AUT-PK 500 [1] was “no significant effect”.
On to `NCCCCNCCCN` [spermidine], for which the “effect on the autophosphorylation of AUT-PK 500” value in the assay on AUT-PK 500 [1] (polyamines each at 1 mM) is on record as “No effect”.
As for `NCCCNCCCCNCCCN` [spermine], in the assay with AUT-PK 500 [1] (polyamines each at 1 mM), the “effect on the autophosphorylation of AUT-PK 500” value is recorded as “No effect”.
Calmodulin: the “^32 P Incorporated” value in the assay with AUT-PK 500 [1] (Table III, 100 microgram/ml, enzyme alone 18,500 cpm) is given as 17,400 cpm.
Take Casein: the “phosphorylation of the substrate by AUT-PK 500” value with AUT-PK 500 [2] was “did not phosphorylate”. The “effect of exogenous substrate proteins on the phosphorylation of AUT-PK 500” value in the assay with AUT-PK 500 [1] (Table II) is listed as “None of these proteins affected the phosphorylation”. In addition, the “^32 P Incorporated” value with AUT-PK 500 [1] (setting [4]) is recorded as 10,000 cpm.
With Protamine, the “effect of exogenous substrate proteins on the phosphorylation of AUT-PK 500” value in the assay on AUT-PK 500 [1] (Table II) is recorded as “None of these proteins affected the phosphorylation”. Moreover, the “^32 P Incorporated” value with AUT-PK 500 [1] (setting [4]) is 12,000 cpm.
Turning to lithium, the “effect on the AUT-PK 500 activity” value with AUT-PK 500 [1] was “no significant effect”.
For polyarginine, the “effect on the autophosphorylation of AUT-PK 500” value with AUT-PK 500 [1] (setting [5]) is reported as “No effect”.
Same read-out and setting: for polylysine the value was “No effect”.
